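Five concentrations, 48 hours, 96-well plates. TGI denotes the concentration required for complete inhibition of growth.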 Where a SMILES comes first, the peptide text is derived from it. Side-chain parts run from the residue outwards. The star is where a group is joined. Cbz = O=C(OCc1ccccc1)*; Boc = CC(C)(C)OC(=O)*
Experiments:
Test in all cases: NCI tumour cell line growth inhibition, 48 h
[1] = test system: UO-31 renal
[2] = test system: MALME-3M melanoma
[3] = test system: HL-60(TB) leukemia
[4] = test system: SW-620 colon
[5] = test system: OVCAR-8 ovarian
[6] = test system: UACC-257 melanoma
[7] = test system: CAKI-1 renal
[8] = test system: MCF7 breast
[9] = test system: OVCAR-3 ovarian

| Compound | TGI [1] [µM] | TGI [2] [µM] | TGI [3] [µM] | TGI [4] [µM] | TGI [5] [µM] | TGI [6] [µM] | TGI [7] [µM] | TGI [8] [µM] | TGI [9] [µM] |
| --- | --- | --- | --- | --- | --- | --- | --- | --- | --- |
| CC(C)(C)OC(=O)NC(CCCCNC(=O)CNC(=O)OCc1ccccc1)C(=O)NC(CCCCNC(=O)CNC(=O)OCc1ccccc1)C(=O)NC(CCCCNC(=O)CNC(=O)OCc1ccccc1)C(=O)NC(CCCCNC(=O)CNC(=O)OCc1ccccc1)C(=O)O (centres undefined) (Boc-K([Gly-Cbz])K([Gly-Cbz])K([Gly-Cbz])K([Gly-Cbz])-OH; configuration not given here) | > 100 | > 100 | > 100 | > 100 | > 100 | > 100 | > 100 | > 100 | > 100 |
| NCCS(=O)(=O)O | > 100 | > 100 | > 100 | > 100 | > 100 | > 100 | > 100 | > 100 | > 100 |
| O=C1CCCCN1C(=O)c1ccc([N+](=O)[O-])cc1 | > 100 | > 100 | > 100 | > 100 | > 100 | > 100 | > 100 | > 100 | > 100 |
| O=C1O[C@H]2C3C4CCC(C4[C@@H]2I)[C@H]13 (some centres undefined) | > 100 | > 100 | > 100 | > 100 | > 100 | > 100 | > 100 | > 100 | > 100 |
| C1=CN2C[n+]3ccc4ccccc4c3N=C2c2ccccc21 | 69.3 | 3.46 | 9.1 | 34.2 | 24.9 | 20.7 | 50.2 | 3.71 | 3.51 |
| CCC(=O)N1C(=O)C(CC)(CC)C(=O)N1C(=O)CC | > 100 | > 100 | > 100 | > 100 | > 100 | > 100 | > 100 | > 100 | > 100 |
| CCN(CC)C1Oc2cc3c(cc2C(c2cccc(OC)c2O)C1C)OCO3 (centres undefined) | 49.5 | 21.7 | 7.18 | 35.4 | > 80.8 | > 50.4 | 27 | > 46 | 5.5 |
| O=C(NNS(=O)(=O)c1ccccc1)c1csc(NC(=S)NC2CCCCC2)n1 | 74.1 | > 100 | > 100 | 72.9 | > 100 | 53.8 | 61.4 | > 100 | 34.4 |
| COc1cc(S(=O)(=O)Nc2ccc(-c3csc(N4C(=O)C(C)SC4c4ccccc4)n3)cc2)ccc1Cl (centres undefined) | > 100 | > 100 | 47.7 | > 100 | > 100 | > 100 | > 100 | 43.2 | > 100 |
| CN(/N=C/c1ccc(Cl)cc1)C1=NCCCCN1 | > 100 | > 100 | > 100 | > 100 | > 100 | > 100 | > 100 | > 100 | > 100 |
| COc1ccc(N2C(=O)C3c4[nH]c5ccccc5c4C4c5ccccc5CC4C3C2=O)cc1 (centres undefined) | > 100 | > 100 | > 100 | > 100 | > 100 | > 100 | > 100 | > 100 | > 100 |
| CC(=O)OCC1OC(n2c(N)c(C#N)c(-c3cccc(Cl)c3)c(C#N)c2=S)C(OC(C)=O)C(OC(C)=O)C1OC(C)=O (centres undefined) | > 100 | > 100 | 52 | > 100 | 39.9 | 65 | > 100 | > 100 | 58 |
| O=C1C=C(O)c2c(O)ccc(O)c2C1=O | > 100 | > 100 | > 100 | > 100 | > 100 | > 100 | > 100 | > 100 | > 100 |
| CC(C)C1=C(Cc2ccccc2)C(=O)O/C1=C\c1ccc(O)c(Cl)c1 | 27.5 | 30.6 | 37.7 | 34.9 | 33.1 | 32.8 | 32.9 | 30.3 | 28 |
| O=C(c1ccccc1)c1c(C(F)(F)F)n([O-])c2cc(F)c(F)cc2[n+]1=O | 2.4 | 0.42 | 1.55 | > 100 | 1.15 | 3.76 | 1.76 | 1.71 | 1.16 |
| COc1ccc(Cn2c3ccc([N+](=O)[O-])cc3c(=O)n2Cc2ccccn2)cc1 | > 100 | > 100 | 75.1 | > 100 | > 100 | > 100 | > 100 | > 100 | > 100 |

Reference: PubChem BioAssay (NCI)
